Measured values: patent US20100216827A1 (Metabolex, Inc., priority 2008, published 2010)
Read-outs that look alike come from different tables or passages of the source.

Biological target: T1, human GPR120 (Homo sapiens, UniProt Q5NUL3)
T1 construct: host or cells: HEK293 cells coexpressing Gqi5
T1 sequence (Q5NUL3 1-361): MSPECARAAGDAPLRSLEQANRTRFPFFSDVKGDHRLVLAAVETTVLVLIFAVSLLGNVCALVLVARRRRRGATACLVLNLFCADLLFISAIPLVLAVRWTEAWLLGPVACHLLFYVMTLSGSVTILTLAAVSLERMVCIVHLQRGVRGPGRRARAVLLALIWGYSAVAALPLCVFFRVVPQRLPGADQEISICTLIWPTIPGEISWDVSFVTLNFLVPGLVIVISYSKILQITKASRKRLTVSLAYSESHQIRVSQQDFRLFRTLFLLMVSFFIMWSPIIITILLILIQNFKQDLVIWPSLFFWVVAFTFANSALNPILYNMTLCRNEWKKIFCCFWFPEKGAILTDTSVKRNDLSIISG
Test: Intracellular Ca2+ (FLIPR Calcium 4, Flexstation) assay in human GPR120 stable HEK293 cell line coexpressing Gqi5
Assay type: cell-based
Details: for % Activity at 5 μM: 5 μM compound compared to the maximal activity of GW9508 at 6.7 μM (100%); for EC50: human GPR120 stably expressing cells, 8 concentrations 0.00001 to 20 μM
Experimental: Human GPR120 stable cell line was purchased from Multispan Inc (26219 Eden Landing Road, Hayward, Calif. 94545). This GPR120 cell line was generated in HEK293 cells coexpressing Gqi5. In this cell line, the Flag epitope tag (DYKDDDDK) was fused to the amino terminus of human GPR120 protein.
The concentration of intracellular Ca^2+ was measured as described below. Human GPR120 cells were plated in 96 well plates (Poly-D-Lysine coated black/clear Plate, Greiner Bio-One) at 70,000 cells per well and cultured overnight in conditions of 37° C. and 5% CO2. A Ca^2+ assay dye stock solution was prepared by adding 10 mL of assay buffer (HBSS/20 mM HEPES, pH 7.4) to FLIPR Calcium 4 Assay Bulk Kit (Molecular Devices). The 10 mL of Ca^2+ assay dye solution was prepared by further diluting 0.5 mL of Ca^2+ assay dye stock solution with 10 mL of assay buffer. The medium of the cells was removed and immediately 100 μl of the Ca^2+ assay dye solution was dispensed into each well followed by incubation at 37° C. and 5% CO2 for 50 minutes to incorporate the Ca^2+ dye into the cells. The cell plate was then placed in the Flexstation (Molecular Devices) for 20 minutes at 37° C. Compounds were dissolved in 100% DMSO and diluted to desired concentrations with assay buffer and placed in Flexstation simultaneously with the cell plate for 20 minute incubation at 37° C. prior to reading. Fluorescence intensity was measured immediately following compound addition (25 μl/well) on the Flexstation at an excitation wavelength of 485 nm and an emission wavelength of 525 with 515 nm auto cutoff. The resulting increase in fluorescence intensities corresponds to increases in intracellular Ca^2+ levels.
Compounds were dissolved in 100% DMSO to a concentration of 20 mM to provide stock solutions. To determine activity against human GPR120, compounds were added with human GPR120 stably expressing cells (described above), at 8 desired concentrations ranging from 0.00001 to 20 μM, in 96 well plates and fluorescence intensities were measured for 90 seconds with 2-second intervals. An EC50 value (concentration of the GPR120 agonist where 50% of the agonist's maximal activity is observed) was calculated using the changes (Max-Min) of fluorescent intensity.
To determine percent activity for a tested compound, the fluorescence intensity value obtained at a particular concentration were compared to the maximal fluorescence intensity value obtained for reference compound GW9508 (4-[[(3-phenoxyphenyl)methyl]amino]benzene propanoic acid; British Journal of Pharmacology 2006 148, 619-628) that acts as a full agonist of the GPR120 receptor. The maximal activity of GW9508 is designated as 100% activity. Typically, the GW9508 activity reached a maximum at a concentration of approximately 6.7 μM. Activities of compounds that were tested according to this method are shown in Table 1 below and are expressed as % activity at 5 μM compound compared to the maximal activity of GW9508 at 6.7 μM.

[1] = read-out: EC50 between >1 μM and ≦10 μM

Compound	% Activity at 5 μM [%]	EC50 (read-out: EC50 > 10 μM) [µM]	EC50 [1] [µM]	EC50 (read-out: EC50 ≦ 1 μM) [µM]
O=C(O)CCC(=O)c1ccc(OCc2snnc2-c2ccc(Cl)cc2)cc1 [Example 67, 4-(4-((4-(4-chlorophenyl)-1,2,3-thiadiazol-5-yl)methoxy)phenyl)-4-oxobutanoic acid]	59		1 to 10	
C/C(=C\C(=O)O)Cc1ccc(OCc2snnc2-c2ccc(Cl)cc2)cc1 [Example 69, (E)-4-(4-((4-(4-chlorophenyl)-1,2,3-thiadiazol-5-yl)methoxy)phenyl)-3-methylbut-2-enoic acid]	87		1 to 10	
Cc1cc(COc2ccc(CC(C)CC(=O)O)cc2)n(-c2ccc(Cl)cc2)n1 (stereo not drawn) [Example 72, 4-(4-((1-(4-chlorophenyl)-3-methyl-1H-pyrazol-5-yl)methoxy)phenyl)-3-methylbutanoic acid]	100			≤ 1
Cc1cc(COc2c(F)cc(CC(C)C(=O)O)cc2F)n(-c2ccc(C(C)C)cc2)n1 (stereo not drawn) [Example 76, 3-(3,5-difluoro-4-((1-(4-isopropylphenyl)-3-methyl-1H-pyrazol-5-yl)methoxy)phenyl)-2-methylpropanoic acid]	85			≤ 1
Cc1cc(COc2ccc(CC(C)C(=O)O)cc2C(F)(F)F)n(-c2ccc(Cl)cc2)n1 (stereo not drawn) [Example 78, 3-(4-((1-(4-chlorophenyl)-3-methyl-1H-pyrazol-5-yl)methoxy)-3-(trifluoromethyl)phenyl)-2-methylpropanoic acid]	92			≤ 1
Cc1cc(COc2c(F)cc(CC(C)C(=O)O)cc2F)n(-c2ccc(C#N)cc2)n1 (stereo not drawn) [Example 80, 3-(4-((1-(4-cyanophenyl)-3-methyl-1H-pyrazol-5-yl)methoxy)-3,5-difluorophenyl)-2-methylpropanoic acid]	92			≤ 1
CCCCc1ccc(-n2nc(C)cc2COc2c(F)cc(CC(C)C(=O)O)cc2F)cc1 (stereo not drawn) [Example 82, 3-(4-((1-(4-butylphenyl)-3-methyl-1H-pyrazol-5-yl)methoxy)-3,5-difluorophenyl)-2-methylpropanoic acid]	68			≤ 1
Cc1ccc(-n2nc(C)cc2COc2c(F)cc(CC(C)C(=O)O)cc2F)cc1 (stereo not drawn) [Example 84, 3-(3,5-difluoro-4-((3-methyl-1-p-tolyl-1H-pyrazol-5-yl)methoxy)phenyl)-2-methylpropanoic acid]	106			≤ 1
Cc1cc(COc2c(F)cc(CC(C)C(=O)O)cc2F)n(-c2ccc(C)c(C)c2)n1 (stereo not drawn) [Example 87, 3-(4-((1-(3,4-dimethylphenyl)-3-methyl-1H-pyrazol-5-yl)methoxy)-3,5-difluorophenyl)-2-methylpropanoic acid]	106			≤ 1
Cc1cc(COc2c(F)cc(CC(C)C(=O)O)cc2F)n(-c2cccc(Cl)c2)n1 (stereo not drawn) [Example 89, 3-(4-((1-(3-chlorophenyl)-3-methyl-1H-pyrazol-5-yl)methoxy)-3,5-difluorophenyl)-2-methylpropanoic acid]	107			≤ 1

Next, values leading:

% Activity at 5 μM [%]	EC50 (read-out: EC50 > 10 μM) [µM]	EC50 [1] [µM]	EC50 (read-out: EC50 ≦ 1 μM) [µM]	Compound
15	> 10			C[C@@H](Oc1cc(F)c(OCc2snnc2-c2ccc(Cl)cc2)c(F)c1)C(=O)O [Example 66, (R)-2-(4-((4-(4-chlorophenyl)-1,2,3-thiadiazol-5-yl)methoxy)-3,5-difluorophenoxy)propanoic acid]
54		1 to 10		CO/N=C(/CCC(=O)O)c1ccc(OCc2snnc2-c2ccc(Cl)cc2)cc1 [Example 68, (Z)-4-(4-((4-(4-chlorophenyl)-1,2,3-thiadiazol-5-yl)methoxy)phenyl)-4-(methoxyimino)butanoic acid]
62		1 to 10		C/C(=C\C(=O)O)CCc1ccc(OCc2snnc2-c2ccc(Cl)cc2)cc1 [Example 70, (E)-5-(4-((4-(4-chlorophenyl)-1,2,3-thiadiazol-5-yl)methoxy)phenyl)-3-methylpent-2-enoic acid]
100			≤ 1	Cc1cc(COc2ccc(CCC(C)CC(=O)O)cc2)n(-c2ccc(Cl)cc2)n1 (stereo not drawn) [Example 71, 5-(4-((1-(4-chlorophenyl)-3-methyl-1H-pyrazol-5-yl)methoxy)phenyl)-3-methyl pentanoic acid]
72			≤ 1	O=C(O)CCc1cc(F)c(OCc2snnc2-c2ccc(F)c(F)c2)c(F)c1 [Example 73, 3-(4-((4-(3,4-difluorophenyl)-1,2,3-thiadiazol-5-yl)methoxy)-3,5-difluorophenyl)propanoic acid]
95			≤ 1	Cc1cc(COc2c(F)cc(CC(C)C(=O)O)cc2F)n(-c2ccc(C(F)(F)F)cc2)n1 (stereo not drawn) [Example 77, 3-(3,5-difluoro-4-((3-methyl-1-(4-(trifluoromethyl)phenyl)-1H-pyrazol-5-yl)methoxy)phenyl)-2-methylpropanoic acid]
9	> 10			Cc1cc(COc2c(F)cc(CC(C)C(=O)O)cc2F)n(-c2ccc(C(N)=O)cc2)n1 (stereo not drawn) [Example 79, 3-(4-((1-(4-carbamoylphenyl)-3-methyl-1H-pyrazol-5-yl)methoxy)-3,5-difluorophenyl)-2-methylpropanoic acid]
106			≤ 1	Cc1cc(COc2c(F)cc(CC(C)C(=O)O)cc2F)n(-c2ccc3c(c2)CCC3)n1 (stereo not drawn) [Example 81, 3-(4-((1-(2,3-dihydro-1H-inden-5-yl)-3-methyl-1H-pyrazol-5-yl)methoxy)-3,5-difluorophenyl)-2-methylpropanoic acid]
88			≤ 1	CCc1ccc(-n2nc(C)cc2COc2c(F)cc(CC(C)C(=O)O)cc2F)cc1 (stereo not drawn) [Example 83, 3-(4-((1-(4-ethylphenyl)-3-methyl-1H-pyrazol-5-yl)methoxy)-3,5-difluorophenyl)-2-methylpropanoic acid]
95			≤ 1	Cc1cc(COc2c(F)cc(CC(C)C(=O)O)cc2F)n(-c2cccc(C(C)C)c2)n1 (stereo not drawn) [Example 85, 3-(3,5-difluoro-4-((1-(3-isopropylphenyl)-3-methyl-1H-pyrazol-5-yl)methoxy)phenyl)-2-methylpropanoic acid]
98			≤ 1	Cc1cc(COc2ccc(CC(C)C(=O)O)cc2)n(-c2ccc(Cl)cc2)n1 (stereo not drawn) [Example 86, 3-(4-((1-(4-chlorophenyl)-3-methyl-1H-pyrazol-5-yl)methoxy)phenyl)-2-methylpropanoic acid]
107			≤ 1	Cc1cc(COc2c(F)cc(CC(C)C(=O)O)cc2F)n(-c2ccc(C)c(Cl)c2)n1 (stereo not drawn) [Example 88, 3-(4-((1-(3-chloro-4-methylphenyl)-3-methyl-1H-pyrazol-5-yl)methoxy)-3,5-difluorophenyl)-2-methylpropanoic acid]
99			≤ 1	CCc1ccc(-n2nc(C)cc2COc2ccc(CC(C)C(=O)O)cc2F)cc1 (stereo not drawn) [Example 90, 3-(4-((1-(4-ethylphenyl)-3-methyl-1H-pyrazol-5-yl)methoxy)-3-fluorophenyl)-2-methylpropanoic acid]
64			≤ 1	CC(Cc1cc(F)c(OCc2ccnn2-c2ccccc2)c(F)c1)C(=O)O (stereo not drawn) [Example 91, 3-(3,5-difluoro-4-((1-phenyl-1H-pyrazol-5-yl)methoxy)phenyl)-2-methylpropanoic acid]
